Test results from US20220340579A1, “PYRAZOLYL BICYCLIC AMINES AS CDK2 INHIBITORS” (Incyte Corporation, priority 2021, published 2022).

Target: T1, CDK2/Cyclin E1 (Homo sapiens, UniProt P24941)
T1 construct: enzyme activity assays utilize full-length human CDK2; GST (N); purchased Carna 04-165; host or cells: baculovirus expression system
Experiment: CDK2/Cyclin E1 HTRF enzyme activity assay
Assay type: biochemical
Conditions: 1 mM ATP
Protocol: Example A. CDK2/Cyclin E1 HTRF Enzyme Activity Assay
CDK2/Cyclin E1 enzyme activity assays utilize full-length human CDK2 co-expressed as N-terminal GST-tagged protein with FLAG-Cyclin E1 in a baculovirus expression system (Carna Product Number 04-165). Assays were conducted in white 384-well polystyrene plates in a final reaction volume of 8 μL. CDK2/Cyclin E1 (0.25 nM) was incubated with the compounds of the Examples (40 nL serially diluted in DMSO) in the presence of ATP (50 μM or 1 mM) and 50 nM ULight™-labeled eIF4E-binding protein 1 (THR37/46) peptide (PerkinElmer) in assay buffer (containing 50 mM HEPES pH 7.5, 1 mM EGTA, 10 mM MgCl2, 2 mM DTT, 0.05 mg/mL BSA, and 0.01% Tween 20) for 60 minutes at room temperature. The reactions were stopped by the addition of EDTA and Europium-labeled anti-phospho-4E-BP1 antibody (PerkinElmer), for a final concentration of 15 mM and 1.5 nM, respectively. HTRF signals were read after 1 hour at room temperature on a PHERAstar FS plate reader (BMG Labtech). Data was analyzed with IDBS XLFit and GraphPad Prism 5.0 software using a three or four parameter dose response curve to determine IC50 for each compound.

| IC50 [nM] | SMILES |
| --- | --- |
| ≤ 10 | C[C@@H]1CN(S(C)(=O)=O)CC[C@@H]1Nc1nc2cnc(-c3cn[nH]c3)c(OCC(F)(F)F)n2n1 [Example 3, N-((3R,4S)-3-Methyl-1-(methylsulfonyl)piperidin-4-yl)-6-(1H-pyrazol-4-yl)-5-(2,2,2-trifluoroethoxy)-[1,2,4]triazolo[1,5-a]pyrazin-2-amine] |
| ≤ 10 | C[C@@H]1CN(S(C)(=O)=O)CC[C@@H]1Nc1nc2c(OCC(F)(F)F)c(-c3cn[nH]c3)ncn2n1 [Example 2, N-((3R,4S)-3-Methyl-1-(methylsulfonyl)piperidin-4-yl)-7-(1H-pyrazol-4-yl)-8-(2,2,2-trifluoroethoxy)-[1,2,4]triazolo[1,5-c]pyrimidin-2-amine] |

| SMILES | IC50 [nM] |
| --- | --- |
| C[C@@H]1CN(S(C)(=O)=O)CC[C@@H]1Nc1nc2c(OC3CCC3)c(-c3cn[nH]c3)ncn2n1 [Example 1, 8-Cyclobutoxy-N-((3R,4S)-3-methyl-1-(methylsulfonyl)piperidin-4-yl)-7-(1H-pyrazol-4-yl)-[1,2,4]triazolo[1,5-c]pyrimidin-2-amine] | ≤ 10 |
